# Source: patent EP4613274A1, “SENOLYTIC COMPOUNDS” (Freie Universität Berlin, priority 2024, dated 2025)
# How the values were obtained:
# [1] = system: hydrogen peroxide; assay: Europium-tetracycline (EuTc) fluorescence assay for hydrogen peroxide generation; type: biochemical
# From the text: For a confirmation of the POG redox cycling, hydrogen peroxide formed by peroxygenin from elemental oxygen was quantified. For this purpose, a fluorescence-based europium tetracycline assay in 3-(N-morpholino)propanesulfonic acid (MOPS) buffer at pH 6.9, close to the physiological pH, was adapted for monitoring of hydrogen peroxide released from POG-4 (Wolfbeis et al., 2002; Dürkop et al., 2005; Wu et al., 2005; Schrenkhammer et al., 2007) Reportedly, this assay is based on the formation of an quaternary pentagonal bipyramidal Eu(III)-tetracycline (Tc) complex of the stoichiometry Eu2Tc2 (Karthikeyan et al., 2004) in which one equivalent of hydrogen peroxide forms a bridged peroxide complex (µ-H2O2 ligand) (Dehaen et al. 2009) and upon excitation at 405 nm fluoresces at 616 nm. First, the sensitivity of the assay toward hydrogen peroxide was investigated. For that, different hydrogen peroxide concentrations, ranging from 10 µM to 1000 µM, were used to analyze the fluorescence signal (Figures 2A and 2B, curves 6 to 14 and 26 to 34; curves 6 and 26:1000 µM, curves 7 and 27: 800 µM, curves 8 and 28: 400 µM, curves 9 and 29: 200 µM, curves 10 and 30: 100 µM, curves 11 and 31: 50 µM, curves 12 and 32: 25 µM, curves 13 and 33: 10 µM, curves 14 and […]).
# Next, the same assay conditions were applied to quantify hydrogen peroxide formation from POG-4 (V3) (referred to in the following simply as POG-4) having the following formula: [drawing 142] […]
# Protocol: The assay was performed in cuvettes with a base area of 1 cm x 1 cm. Measurement of fluorescence intensity was carried out with a fluorescence spectrometer FP-6500 by Jasco at λem = 616 nm (λex = 405 nm). […]
# H2O2 calibration: DTT (10 µL, 200 mM; 1mM final concentration) were added to Eu2Tc2 (2 mL) solution in a cuvette and equilibrated by stirring for 5 min at 37 °C until the fluorescence signal was constant. […] All measurements were repeated three times and a mean was calculated. […]
# [2] = system: Eµ-myc;Bcl2 lymphoma cells; assay: 22-hours cytotoxicity assay (dye exclusion) in therapy-induced senescence (TIS) model; type: cell-based, murine; details: ADR 0.02 µg/ml for 10 d; for senolytic activity in senescent cells protected by expression of catalase: catalase overexpression, POG for 22 h
# Experimental: TIS: Eµ-myc;Bcl2 lymphoma cells (with or without catalase overexpression) and senescence-/p53-deficient Eµ-myc; Bcl2 lymphoma cells were treated with ADR (0.02 µg/ml) or solvent.
# (§1) All cells were analyzed at day 10 after start of the treatment and oncogene induction, respectively. Shown in grey in the first (left) column are mean percentages of senescence-associated beta-galactosidase (SA-β-gal)-)positive cells for each treatment. Proliferating cells and their senescent counterpart were exposed to the same increasing concentrations of POG (from left to right: murine Eµ-myc lymphoma cells and primary mouse fibroblasts = 0, 0.2, 0.4, 0.8, and 1.2 µM) POG, for VIS and RS = 0, 2, 3, 4, and 5 µM) POG, and for all others = 0, 1, 2, 3, and 4 µM) POG) for 22 h before measuring their viabilities using a dye exclusion test.
# Viability of solvent-treated cells were set to 100% for each treatment and viabilities of POG-treated cells were normalized relative to solvent-treated controls.
# The senescent state was documented by specific measurement of increased SA-β-galactosidase activity. […] Eµ-myc;Bcl2 lymphoma cells (with or without ectopic catalase overexpression, introduced via stable retroviral gene transfer) and senescence-/p53-deficient Eµ-myc;Bcl2 lymphoma cells were treated with ADR (0.02 µg/ml) or solvent for 10 d. Proliferating cells and their senescent counterpart were exposed to the same increasing concentrations of POG for 22 h before measuring their viabilities using a dye exclusion test (Ghost Dye Red 780, 13-0865-T500, Tonbo). Viability of solvent-treated cells were set to 100% for each treatment and viabilities of POG-treated cells were normalized relative to solvent-treated controls.
# [3] = system: Primary mouse embryo fibroblasts (MEF); assay: Viability of rotenone-treated MEF with raised cellular NADH (dye exclusion assay); type: cell-based; details: 500 nM rotenone 2 h prior to POG exposure (1 µM), viability 22 h later
# Experimental: Increasing cellular NADH levels sensitizes cells towards POG-mediated killing in a H2O2-dependent fashion. Primary mouse embryo fibroblasts (MEF) were stably transduced with a catalase-overexpressing retrovirus or empty virus and exposed to 500 nM rotenone (an NADH dehydrogenase inhibitor used to increase cellular NADH levels via inhibition of the mitochondrial complex I) 2 h prior to POG exposure (1 µM) before measuring cell viabilities 22 h later using a dye exclusion assay (Ghost Dye Red 780, 13-0865-T500, Tonbo). Figure 5 illustrates the results in form of means ± standard deviation (SD).
# [4] = system: C57/BL6 mice; assay: Rotarod performance test in aged mice; type: in vivo; details: 10-months old mice, 0.25 mg/kg body weight i.v. twice every fortnight, rotarod one month later, versus solvent
# Experimental: To quantify the global impact of POG on age-related physical decline, a rotarod performance test was conducted, which captures the time mice can run on a rotating rod before falling off due to exhaustion.
# For the experiments, the results of which are shown in Figure 7A, C57/BL6 mice (10-months old, "old mice") were treated twice with POG (0.25 mg/kg body weight, i.v. injected every fortnight; n = 11) or solvent (n = 11), before their physical performance was assessed using a rotarod device one month later (from 4 to 40 rpm in 180 s; acceleration rate: 0.2 rpm/s). For comparison a cohort of untreated young mice (8-weeks old; n = 10) was measured in parallel. Each datapoint represents the maximum time the (previously trained) animal was able to remain on the rotating rod from 5 consecutive runs per mouse.
# [5] = system: Eµ-myc transgenic lymphomas; assay: Overall survival of CTX-treated lymphoma-bearing mice with sequential POG exposure; type: in vivo; details: CTX 1 × 300 mg/kg i.p. then POG 2 × 0.25 mg/kg i.v.
# Experimental: The inventors also analyzed the impact of a sequential POG exposure on overall survival in chemotherapy-exposed mice bearing senescence-capable vs. senescence-incapable lymphomas. […] In essence, POG treatment led to reduction of senescent cells in vivo, and extended healthy lifespan of aged and anticancer-treated mice.
# CTX treatment: 1 × 300 mg/kg body weight via i.p., POG treatment: 2 × 0.25 mg/kg body weight via the i.v. application route. Figure 7B illustrates means ± SD, wherein an unpaired two-tailed Student's t test was done for statistical analysis (*P < 0.05).
# [6] = system: Liver cell preparations; assay: Ex vivo treatment of liver cell preparations (SA-β-gal, TUNEL, DAPI staining); type: cell-based, C57/BL6 mice; details: old (20-months old) mice, ex vivo 22 h, POG 1.5 µM
# Experimental: Liver cell preparations from young (10-weeks old) and old (20-months old) C57/BL6 mice were treated ex vivo for 22 h with POG (1.5 µM) or solvent. Cells were fixed and stained for SA-β-gal, TUNEL (Terminal deoxynucleotidyl transferase dUTP nick end labeling) and DAPI (4',6-diamidino-2-phenylindole). Percentage of senescent (SA-β-gal-positive) cells present in the viable (TUNEL-negative) liver cell population (Figure 8A) and overall viability of the liver cell population (Figure 8B) was quantified via fluorescence microscopy.
# [7] = system: Primary mouse fibroblasts (MEF); assay: NMU-induced transformation of MEF, soft-agar colony formation; type: cell-based; details: 2 mM NMU for 5 weeks, POG-4 1.0 µM, 10 weeks in 0.3 % soft-agar
# Experimental: Primary mouse fibroblasts (MEF) were treated for 5 weeks with 2 mM N-nitroso-N-methylurea (NMU) or solvent to mutagenize their genomes. Selective killing of senescent subpopulation was assessed by measuring the percentage of SA-β-gal positive cells after POG-4 exposure (1.0 µM for 22 h). […] 2 × 10^4 of viable NMU-pre-treated MEF with or without subsequent POG-4 exposure (1.0 µM) from the experiment of Figure 9A were seeded in 0.3 % soft-agar and cultivated for 10 weeks, before formation of colonies (>50 cells/colony) was quantified. Again, means ± SD are illustrated POG-mediated senolysis of DMBA-induced OIS cells was tested; the results are depicted in Figure 10. Like NMU, 7,12-dimethyl-benzoanthracen (DMBA) is known to induce oncogenic mutations across all Ras isoforms. MEF were mutagenized with DMBA (0.25 µg/ml) for 7 days before cells were exposed to increasing concentrations of POG 1 week later. Cell viabilities were measured 22 h later using a dye exclusion assay (right; (Ghost Dye Red 780, 13-0865-T500, Tonbo). SA-β-gal stainings (left) were performed 2 days after POG exposure. Filled circles denote experiments conducted with solvent; filled squares denote experiments conducted with DMBA.
# [8] = system: C57/BL6 mice; assay: NMU-induced tumorigenesis in vivo (T-cell lymphoma development); details: 30 mg NMU/kg i.p. for 5 weeks, POG-4 2 × 0.25 mg kg^-1 i.v. within one week, monitored 300 d; p = 0.0258
# Experimental: The interference of POG-4 with NMU-induced tumorigenesis was established in vivo (Figure 11). For this purpose, 30 days old C57/BL6 mice were mutagenized for 5 consecutive weeks with 30 mg NMU/kg bodyweight (b.w.) intraperitoneally (i.p.) prior to treatment with POG-4 (2 × 0.25 mg kg^-1 body weight intravenously (i.v.) injected within one week) or solvent, respectively. The mice were subsequently monitored for 300 d and T-cell lymphoma development was plotted as the time between first NMU treatment and tumor manifestation in a Kaplan Meier format. Log-rank [Mantel-Cox] test was used to compare solvent- and POG-treated cohorts.
# [9] = system: A549; assay: Virus-induced senescence (VIS) model, dye exclusion viability test; type: cell-based, human; details: lentivirus MOI = 50, POG-4 for 22 h
# Experimental: VIS: The human alveolar epithelial adenocarcinom cell line A549 as well as VIS-deficient VeroB4 cells were infected with a high-titer GFP-expressing lentivirus (pCDH-CMV-MCS-EF1-GFP; MOI = 50) to induce VIS.
# as §1
# The adenocarcinomic alveolar epithelial cell line A549 as well as VIS-deficient VeroB4 cells were infected with a high-titer GFP-expressing lentivirus (pCDH-CMV-MCS-EF1-GFP; multiplicity of infection [MOI] = 50). At day 6, the cells were stained for SA-β-gal before treating them with increasing concentrations of POG-4. After 22 h, the cell viability was measured using a dye exclusion test. Figure 12 illustrates means ± SD.
smiles,measurement,setting,value
"Cn1nc(/C=C/c2ccccc2)nc2c(=O)n(C)c(=O)nc1-2 [POG-4, (E)-1,6-Dimethyl-3-styrylpyrimido[5,4-e][1,2,4]triazine-5,7(1H,6H)-dione]",time at which the maximum concentration was reached,"[1]; 5 µM POG-4, 1 mM NADH",approximately 120 minutes
same,hydrogen peroxide concentration in dependence on NADH concentration,"[1]; POG 1 µM, NADH 0.1 mM to 5 mM",higher hydrogen peroxide concentration
same,generation of H2O2 (fluorescence),"[1]; POG-4 0.1 to 5 µM with 1 mM NADH, MOPS buffer pH 6.9, time frame of 300 min",continuous generation of H2O2
same,sensitivity of senescent cells versus non-senescent tumor cells (viability),[2]; then POG for 22 h,significantly more sensitive
same,senolytic activity in senescent cells protected by expression of catalase,[2],did not exhibit senolytic activity
same,senolytic activity in senescent cells protected by expression of catalase,[2]; listed as POG,lack sensitivity
same,dependence of activity on cellular NADH levels,[3],relied on increased levels of the reducing equivalent (NADH)
same,running time on rotating rod,[4],significantly extended the running time
same,overall survival,"[5]; senescence-capable p53+/+ Eµ-myc lymphomas, versus DMSO, P = 0.0282",lived significantly longer
same,overall survival,"[5]; senescence-incapable Eµ-myc;p53-null lymphomas, P > 0.05",failed to realize such benefit
same,percentage of senescent liver cells,[6],decreased significantly
same,NMU-induced transformation (soft-agar colonies),[7],ablates NMU-induced transformation
same,NMU-induced tumorigenesis (time to tumor manifestation),[8],interferes with NMU-induced tumorigenesis in vivo
same,senolytic activity against virus-induced senescence,[9],exhibit senolytic activity
